“Also recorded” adds a separate entry of the source.
What was measured:
Format in all cases: cell-based
BCL-XL protein = target: T1, BCL-XL protein (Homo sapiens, UniProt Q07817); experiment: Western blot of BCL-XL protein in Molt-4 cells; settings: 100 nM, 8 h
T1 construct: endogenous in cells; host or cells: Molt-4 (human acute lymphocytic leukemia cells)
Experimental: The BCL-XL antibody used in the experiment was purchased from Abcam Company, and the Tubulin antibody was purchased from Proteintech Company.
Molt-4 cells in logarithmic growth phase seeded at a density of 3×10^6 cells/well in a 6-well plate were subjected to treatment with the compounds of the present disclosure, and DMSO was used as the vehicle control group. After […] of treatment, the cells were harvested and washed once in PBS. Cells were placed on ice and treated with IP protein lysis buffer containing PMSF protease inhibitors. After centrifugation at 4° C. (10 k rpm, 5 min), the supernatant was collected and mixed with 4×LDS protein loading buffer at a volume ratio of 3:1. The mixture of protein supernatant with loading buffer were further added with 5% β-mercaptoethanol. After incubation in a metal bath at 95° C. for 10 minutes, the protein samples was stored at −80° C. or cooled directly on ice for protein electrophoresis using 10% homemade polyacrylamide gel as separation gel. Electrophoresis tank and other related components were purchased from Bio-rad company. The electrophoresis conditions were voltage 80 V for 45 minutes, then switch to voltage 120V for further electrophoresis for 1 hour. Then protein in gel was transferred onto PVDF membrane at an isocurrent of 300 mA in an icy water bath for one hour. Afterwards, the membrane was blocked with 5% skim milk for 1 hour at room temperature. Subsequently the membrane was incubated with primary antibody at 4° C. overnight or at room temperature for 2 h, then washed with 1×TBST buffer (sodium chloride, 150 mM, Tris, 10 mM, Tween 20, 0.1%; PH 7.4) for three times, and then added with secondary antibody and incubated at room temperature for 45 min, washed with 1×TBST buffer (sodium chloride, 150 mM, Tris, 10 mM, Tween 20, 0.1%; PH 7.4) three times, and subjected to color development. The antibody dilution ratio was determined according to the antibody instructions.
Molt-4 cells were seeded into a 6-well plate at a density of 3×10^6 cells per well. The next day, the cells were treated with the compounds of the present disclosure at a concentration of 100 nM, and the control groups were treated with DMSO and DT2216, respectively. Protein were extracted after 8 hours treatment, and BCL-XL protein expression was assessed by the western blot.

MV4;11 cells = experiment: Thiazolyl blue cell proliferation assay in MV4;11 cells; settings: Homo sapiens, MV4;11 myeloid monocytic leukemia cells, 48 hours, read-out: IC50 (nM) for inhibiting the proliferation of MV4;11 cells
Description: (§1) The cell lines RS4;11 (human acute lymphocytic leukemia cells), Molt-4 cells (human acute lymphocytic leukemia cells), MV4;11 (human myeloid monocytic leukemia cells), and Light II cells were commercially available or purchased from ATCC (American Type Culture Collection) and routinely cultured according to instructions.
2) Study on the proliferation inhibition effects induced by the compounds of the present disclosure designed based on ABT199/263 against BCL-XL-dependent MV4;11 cells:
(§2) The specific steps were as follows: MV4;11 cells were seeded at a density of 2×10^4 cells/well in 90 μL of serum-containing IMDM culture medium. DT2216 and the compounds of the present disclosure were added to the cell suspension at corresponding concentration gradients. DT2216 and DMSO were used as positive and vehicle control, respectively. The positive control and negative control were treated with the same treatment method as the compounds of the present disclosure. After treating the cells with the compounds of the present disclosure for 48 hours, thiazole blue solution (5 mg/mL) was added at 10 µL/well to the cell suspension, followed by incubation for 3 hours at 37° C. in an incubator with 5% CO2. Then, triple solution (0.1 g/mL SDS, 5% isopropyl alcohol, 10 mM hydrochloric acid) was added, followed by incubation for 4-6 hours at 37° C. in an incubator with 5% CO2. After confirming that all the crystal violets were dissolved under inverted biological microscopy, the absorbance was measured at 490 nm using an Epoch microplate reader (Biotek Corporation). The growth inhibition of the compounds of the present disclosure on the cells was plotted by GraphPad Prism 8 software, and the IC50 values of the compounds of the present disclosure were calculated therefrom. The experiment had 3 replicates per group and was repeated at least three times.

[1] = test system: Hedgehog (Hh) signaling pathway; experiment: Dual-luciferase reporter assay of Hedgehog activity in Light II cells; settings: SAG stimulation, 36 h, dual-luciferase assay reporter kit, read-out: IC50 (nM) in Light II cells (inhibiting Hedgehog activity)
Experimental: Determination of the IC50 Values of Compounds Inhibiting Hedgehog Activity—Dual-Luciferase Reporter Assay:
Light II cells were NIH3T3 cell lines that stably express the Gli-luciferase and TK-renilla reporters. They were cultured with DMEM medium containing 10% (v/v) fetal bovine serum (FBS), 0.4 mg/ml G418, 0.15 mg/ml bleomycin (Zeocin), and penicillin/streptomycin at 37° C. in an incubator with 5% CO2. Light II cells in the logarithmic growth phase were seeded at a density of 2.5×10^4 cells/well in a 96-well plate. After 24h incubation, the cells were subjected to treatment with SAG with or without different concentrations of the compounds of the present disclosure for 36 h. After that, the Hedgehog activity was measured using the dual fluorescence reporter kit according to its instructions. The experiment had 3 replicates per group and was repeated at least three times.

Molt-4 cells = experiment: Thiazolyl blue cell proliferation assay in Molt-4 cells; settings: Homo sapiens, Molt-4 acute lymphocytic leukemia cells, 72 hours, read-out: IC50 (nM) for inhibiting the proliferation of Molt-4 cells
Description: as §1
3) Study on the proliferation inhibition effects induced by the compounds of the present disclosure designed based on ABT199/263 against BCL-XL-dependent Molt-4 cells:
as §2, with “follows: Molt-4” for “follows: MV4;11”, “in 180” for “in 90”, “serum-containing RPMI 1640” for “serum-containing IMDM”, “for 72” for “for 48”, “at 20 μL/well” for “at 10 µL/well”

RS4;11 cells = experiment: Thiazolyl blue cell proliferation assay in RS4;11 cells; settings: Homo sapiens, RS4;11 acute lymphoblastic leukemia cells, 48 hours, read-out: IC50 (nM) for inhibiting the proliferation of RS4;11 cells
Description: as §1
1) Study on the proliferation inhibition effects induced by the compounds of the present disclosure designed based on ABT199/263 against BCL-XL-dependent RS4;11 cells:
as §2, with “RS4;11” for “MV4;11”, “3×10^4” for “2×10^4”, “RPMI-1640” for “IMDM”, “μL/well” for “µL/well”
We conducted dose-dependent experiments on the designed and synthesized compounds of the present disclosure in RS4;11 cells, which are highly sensitive to BCL-XL inhibitors. The cells were treated with 7 different concentrations (starting at the highest concentration of 1000 nM or 100 nM; 10-fold serial dilutions) of the compounds for 48 hours, and then tested using the thiazolyl blue cell proliferation assay.

T1 sequence (Q07817 whole entry): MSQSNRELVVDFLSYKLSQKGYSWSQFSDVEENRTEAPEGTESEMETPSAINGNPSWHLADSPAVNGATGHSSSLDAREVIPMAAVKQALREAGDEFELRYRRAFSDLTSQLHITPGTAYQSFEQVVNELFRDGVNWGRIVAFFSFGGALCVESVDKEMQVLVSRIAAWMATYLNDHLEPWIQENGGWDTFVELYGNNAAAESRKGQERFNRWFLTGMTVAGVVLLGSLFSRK

Row | Compound | BCL-XL protein expression / degradation (western blot) (BCL-XL protein) | IC50 (MV4;11 cells) [nM] | IC50 [1] [nM] | IC50 (Molt-4 cells) [nM] | IC50 (RS4;11 cells) [nM]
1 | CC1(C)CCC(CN2CCN(c3ccc(C(=O)NS(=O)(=O)c4ccc(NC[C@H]5CC[C@H](N6CCN(Cc7cc(Br)c8c(c7)C(=O)N(C7CCC(=O)NC7=O)C8)CC6)CC5)c([N+](=O)[O-])c4)c(Oc4cnc5[nH]ccc5c4)c3)CC2)=C(c2ccc(Cl)cc2)C1 (relative stereo) [BCL-03146, 2-((1H-pyrrolo[2,3-b]pyridin-5-yl)oxy)-N-((4-((((trans)-4-(4-((7-bromo-2-(2,6-dioxopiperidin-3-yl)-3-oxoisoindolin-5-yl)methyl)piperazin-1-yl)cyclohexyl)methyl)amino)-3-nitrophenyl)sulfonyl)-4-(4-((4′-chloro-5,5-dimethyl-3,4,5,6-tetrahydro-[1,1′-biphenyl]-2-yl)methyl)piperazin-1-yl)benzamide] | significantly reduce the expression of BCL-XL protein; also recorded: significantly degraded BCL-XL protein | < 20 | < 10 | < 10 | < 20
2 | C[C@@H]1CN([C@H]2CC[C@@H](CNc3ccc(S(=O)(=O)NC(=O)c4ccc(N5CCN(CC6=C(c7ccc(Cl)cc7)CC(C)(C)CC6)CC5)cc4Oc4cnc5[nH]ccc5c4)cc3[N+](=O)[O-])CC2)CCN1Cc1ccc2c(c1)CN(C1CCC(=O)NC1=O)C2=O (stereo partly drawn) [BCL-03167, 2-((1H-pyrrolo[2,3-b]pyridin-5-yl)oxy)-4-(4-((4′-chloro-5,5-dimethyl-3,4,5,6-tetrahydro-[1,1′-biphenyl]-2-yl)methyl)piperazin-1-yl)-N-((4-((((cis)-4-((3R)-4-((2-(2,6-dioxopiperidin-3-yl)-1-oxoisoindolin-5-yl)methyl)-3-methylpiperazin-1-yl)cyclohexyl)methyl)amino)-3-nitrophenyl)sulfonyl)benzamide] | – | < 20 | < 10 | < 10 | < 20
3 | C[C@H]1CN([C@H]2CC[C@@H](CNc3ccc(S(=O)(=O)NC(=O)c4ccc(N5CCN(CC6=C(c7ccc(Cl)cc7)CC(C)(C)CC6)CC5)cc4Oc4cnc5[nH]ccc5c4)cc3[N+](=O)[O-])CC2)CCN1Cc1cc(Br)c2c(c1)C(=O)N(C1CCC(=O)NC1=O)C2 (stereo partly drawn) [BCL-03169, 2-((1H-pyrrolo[2,3-b]pyridin-5-yl)oxy)-N-((4-((((cis)-4-((3S)-4-((7-bromo-2-(2,6-dioxopiperidin-3-yl)-3-oxoisoindolin-5-yl)methyl)-3-methylpiperazin-1-yl)cyclohexyl)methyl)amino)-3-nitrophenyl)sulfonyl)-4-(4-((4′-chloro-5,5-dimethyl-3,4,5,6-tetrahydro-[1,1′-biphenyl]-2-yl)methyl)piperazin-1-yl)benzamide] | – | < 20 | < 10 | < 10 | < 20
4 | C[C@H]1CN([C@H]2CC[C@H](CNc3ccc(S(=O)(=O)NC(=O)c4ccc(N5CCN(CC6=C(c7ccc(Cl)cc7)CC(C)(C)CC6)CC5)cc4Oc4cnc5[nH]ccc5c4)cc3[N+](=O)[O-])CC2)CCN1Cc1ccc2c(c1)CN(C1CCC(=O)NC1=O)C2=O (stereo partly drawn) [BCL-03166, 2-((1H-pyrrolo[2,3-b]pyridin-5-yl)oxy)-4-(4-((4′-chloro-5,5-dimethyl-3,4,5,6-tetrahydro-[1,1′-biphenyl]-2-yl)methyl)piperazin-1-yl)-N-((4-((((trans)-4-((3S)-4-((2-(2,6-dioxopiperidin-3-yl)-1-oxoisoindolin-5-yl)methyl)-3-methylpiperazin-1-yl)cyclohexyl)methyl)amino)-3-nitrophenyl)sulfonyl)benzamide] | – | < 20 | < 10 | < 10 | < 20
5 | CC1(C)CCC(c2ccc(Cl)cc2)=C(CN2CCN(c3ccc(C(=O)NS(=O)(=O)c4ccc(N[C@H](CCN5CCN(Cc6ccc7c(c6)C(=O)N(C6CCC(=O)NC6=O)C7=O)CC5)CSc5ccccc5)c(S(=O)(=O)C(F)(F)F)c4)cc3)CC2)C1 (stereo partly drawn) [BCL-03189, 4-(4-((4′-chloro-4,4-dimethyl-3,4,5,6-tetrahydro-[1,1′-biphenyl]-2-yl)methyl)piperazin-1-yl)-N-((4-(((2R)-4-(4-((2-(2,6-dioxopiperidin-3-yl)-1,3-dioxoisoindolin-5-yl)methyl)piperazin-1-yl)-1-(phenylthio)butan-2-yl)amino)-3-((trifluoromethyl)sulfonyl)phenyl)sulfonyl)benzamide] | – | < 20 | < 10 | < 10 | < 20

Source: patent publication US20250154146A1, “PROTEIN DEGRADERS DEVELOPED ON BASIS OF BCL-2 FAMILY PROTEIN LIGAND COMPOUNDS AND USE THEREOF” (ShanghaiTech University, priority 2022, published 2025)
